Test results published in patent US8580811B2 (Ligand Pharmaceuticals Incorporated, priority 2005, dated 2013).

What follows are compounds tested against T1, human AR (Homo sapiens, UniProt P10275) (assay: IR Binding Assay: whole cell competitive binding of test compounds against 3H-DHT in COS-1 cells transfected with pRShAR).
T1 construct: expressed in transfected cells; host or cells: COS-1 cells
T1 sequence (P10275 1-920): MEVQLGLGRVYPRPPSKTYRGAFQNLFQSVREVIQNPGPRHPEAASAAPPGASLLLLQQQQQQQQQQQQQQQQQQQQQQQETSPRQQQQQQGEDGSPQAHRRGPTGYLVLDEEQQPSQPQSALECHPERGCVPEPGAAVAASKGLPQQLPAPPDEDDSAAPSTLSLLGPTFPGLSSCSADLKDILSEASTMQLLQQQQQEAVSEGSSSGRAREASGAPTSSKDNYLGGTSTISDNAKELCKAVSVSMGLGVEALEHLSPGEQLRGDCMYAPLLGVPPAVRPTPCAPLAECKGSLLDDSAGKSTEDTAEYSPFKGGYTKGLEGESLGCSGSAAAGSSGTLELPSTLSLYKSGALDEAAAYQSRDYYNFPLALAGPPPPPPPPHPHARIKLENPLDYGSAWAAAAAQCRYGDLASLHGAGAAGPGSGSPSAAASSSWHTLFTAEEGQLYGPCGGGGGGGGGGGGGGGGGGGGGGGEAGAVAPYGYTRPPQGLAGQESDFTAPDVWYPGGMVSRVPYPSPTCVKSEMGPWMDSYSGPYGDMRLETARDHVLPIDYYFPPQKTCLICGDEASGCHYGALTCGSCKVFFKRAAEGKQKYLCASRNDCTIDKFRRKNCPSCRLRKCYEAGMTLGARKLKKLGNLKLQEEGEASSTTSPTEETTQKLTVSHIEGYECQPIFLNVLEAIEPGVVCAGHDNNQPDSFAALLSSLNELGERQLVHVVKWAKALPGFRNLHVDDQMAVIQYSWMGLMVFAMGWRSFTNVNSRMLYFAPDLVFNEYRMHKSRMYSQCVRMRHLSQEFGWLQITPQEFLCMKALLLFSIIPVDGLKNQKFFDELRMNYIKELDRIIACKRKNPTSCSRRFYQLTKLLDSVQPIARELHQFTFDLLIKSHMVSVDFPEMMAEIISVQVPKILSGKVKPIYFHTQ
Procedure, shortened: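 COS-1 cells transfected with pRShAR plus β-Gal reporter, serum-starved 24 h, then exposed to 1 nM ³H-DHT with compounds at 10^−10 to 10^−6 M for 3 h at 37 °C. Bound ³H-DHT counted in lysates, normalized to β-Gal. IC50 from log-logit plot; Ki via Cheng-Prusoff using Kd from Scatchard saturation analysis.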

For `Cc1c(-c2cccs2)n(C[C@H](O)C(F)(F)F)c2ccc3[nH]c(=O)cc(Cl)c3c12` [Compound 272, (S)-9-Chloro-1-methyl-2-thiophen-2-yl-3-(3,3,3-trifluoro-2-hydroxy-propyl)-3,6-dihydro-pyrrolo[3,2-f]quinolin-7-one], which Ki is on record?
Its Ki is less than 5 nM.

With `Cc1c(-c2ccncc2)n(C[C@H](O)C(F)(F)F)c2ccc3[nH]c(=O)cc(Cl)c3c12` [Compound 273, (S)-9-Chloro-1-methyl-2-(4-pyridyl)-3-(3,3,3-trifluoro-2-hydroxy-propyl)-3,6-dihydro-pyrrolo[3,2-f]quinolin-7-one] as the compound, how does the Ki read?
Its Ki is greater than 10 nM.

For `Cc1c(-c2cccnc2)n(C[C@H](O)C(F)(F)F)c2ccc3[nH]c(=O)cc(Cl)c3c12` [Compound 274, (S)-9-Chloro-1-methyl-2-(3-pyridyl)-3-(3,3,3-trifluoro-2-hydroxy-propyl)-3,6-dihydro-pyrrolo[3,2-f]quinolin-7-one], which Ki is on record?
The Ki was greater than 10 nM.

How did the Ki turn out when `Cc1c(-c2ccccn2)n(C[C@H](O)C(F)(F)F)c2ccc3[nH]c(=O)cc(Cl)c3c12` [Compound 275, (S)-9-Chloro-1-methyl-2-(2-pyridyl)-3-(3,3,3-trifluoro-2-hydroxy-propyl)-3,6-dihydro-pyrrolo[3,2-f]quinolin-7-one] was run?
The Ki was 5 to 10 nM.

Which Ki does the source give for `Cc1c(-c2nccs2)n(C[C@H](O)C(F)(F)F)c2ccc3[nH]c(=O)cc(Cl)c3c12` [Compound 276, (S)-9-Chloro-1-methyl-2-(1,3-thiazol-2-yl)-3-(3,3,3-trifluoro-2-hydroxy-propyl)-3,6-dihydro-pyrrolo[3,2-f]quinolin-7-one] here?
Its Ki is greater than 10 nM.

How did the Ki turn out when `Cc1c(-c2ccco2)n(C[C@H](O)C(F)(F)F)c2ccc3[nH]c(=O)cc(Cl)c3c12` [Compound 277, (S)-9-Chloro-2-(2-furyl)-1-methyl-3-(3,3,3-trifluoro-2-hydroxy-propyl)-3,6-dihydro-pyrrolo[3,2-f]quinolin-7-one] was run?
Its Ki is less than 5 nM.

How did the Ki turn out when `Cc1c(C)n(C[C@@H](O)C(F)(F)F)c2ccc3[nH]c(=O)cc(Cl)c3c12` [Compound 278, (R)-9-Chloro-1,2-dimethyl-3-(3,3,3-trifluoro-2-hydroxy-propyl)-3,6-dihydro-pyrrolo[3,2-f]-quinolin-7-one] was run?
The Ki was less than 5 nM.

For `Cc1c(-c2ccccc2)n(C[C@@H](O)C(F)(F)F)c2ccc3[nH]c(=O)cc(Cl)c3c12` [Compound 280, 9-Chloro-1-methyl-2-phenyl-3-(3,3,3-trifluoro-2-hydroxy-propyl)-3,6-dihydro-pyrrolo[3,2-f]quinolin-7-one], which Ki is on record?
Its Ki is greater than 10 nM.

For `CCc1c(C)c2c3c(Cl)cc(=O)[nH]c3ccc2n1C[C@@H](O)C(F)(F)F` [Compound 281, (R)-9-Chloro-2-ethyl-1-methyl-3-(3,3,3-trifluoro-2-hydroxy-propyl)-3,6-dihydro-pyrrolo[3,2-f]quinolin-7-one], which Ki is on record?
Its Ki is less than 5 nM.

`Cc1c(-c2cccs2)n(C[C@@H](O)C(F)(F)F)c2ccc3[nH]c(=O)cc(Cl)c3c12` [Compound 282, (R)-9-Chloro-1-methyl-2-thiophen-2-yl-3-(3,3,3-trifluoro-2-hydroxy-propyl)-3,6-dihydro-pyrrolo[3,2-f]quinolin-7-one] was tested. Which Ki did it give?
Its Ki is less than 5 nM.

Which Ki does the source give for `Cc1c(-c2ccncc2)n(C[C@@H](O)C(F)(F)F)c2ccc3[nH]c(=O)cc(Cl)c3c12` [Compound 283, (R)-9-Chloro-1-methyl-2-(4-pyridyl)-3-(3,3,3-trifluoro-2-hydroxy-propyl)-3,6-dihydro-pyrrolo[3,2-f]quinolin-7-one] here?
The Ki was 5 to 10 nM.

For `Cc1ccc(-c2c(C)c3c4c(Cl)cc(=O)[nH]c4ccc3n2C[C@@H](O)C(F)(F)F)o1` [Compound 284, (R)-9-Chloro-1-methyl-2-(5-methylfuran-2-yl)-3-(3,3,3-trifluoro-2-hydroxy-propyl)-3,6-dihydro-pyrrolo[3,2-f]quinolin-7-one], which Ki is on record?
Its Ki is less than 5 nM.

For `Cc1ccc(-c2c(C)c3c4c(Cl)cc(=O)[nH]c4ccc3n2C[C@@H](O)C(F)(F)F)s1` [Compound 285, (R)-9-Chloro-1-methyl-2-(5-methylthiophen-2-yl)-3-(3,3,3-trifluoro-2-hydroxy-propyl)-3,6-dihydro-pyrrolo[3,2-f]quinolin-7-one], which Ki is on record?
The Ki was less than 5 nM.

Which Ki does the source give for `CCc1c(C)c2c3c(C(F)(F)F)cc(=O)[nH]c3ccc2n1CCCO` [Compound 286] here?
The Ki was less than 5 nM.

Which Ki does the source give for `Cc1c(C)n(CCCO)c2ccc3[nH]c(=O)cc(Cl)c3c12` [Compound 287, 9-Chloro-1,2-dimethyl-3-(3-hydroxypropyl)-3,6-dihydro-pyrrolo[3,2-f]quinolin-7-one] here?
Its Ki is greater than 10 nM.

For `Cc1c(C)n(CCCBr)c2ccc3[nH]c(=O)cc(C(F)(F)F)c3c12` [Compound 288, 3-(3-Bromopropyl)-1,2-dimethyl-9-trifluoromethyl-3,6-dihydro-pyrrolo[3,2-f]-quinolin-7-one], which Ki is on record?
The Ki was less than 5 nM.

`Cc1c(C)n(CCCNCCO)c2ccc3[nH]c(=O)cc(C(F)(F)F)c3c12` [Compound 289, 1,2-Dimethyl-3-[3-(2-hydroxy-ethylamino)-propyl]-9-trifluoromethyl-3,6-dihydro-pyrrolo[3,2-f]quinolin-7-one] was tested. Which Ki did it give?
The Ki was greater than 10 nM.

For `Cc1c(C)n(CC(O)CO)c2ccc3[nH]c(=O)cc(Cl)c3c12` (centres unmarked) [Compound 290, 9-Chloro-3-(2,3-dihydroxypropyl)-1,2-dimethyl-3,6-dihydro-pyrrolo[3,2-f]-quinolin-7-one], which Ki is on record?
The Ki was greater than 10 nM.

With `Cc1c(C)n(C[C@H](O)CO)c2ccc3[nH]c(=O)cc(Cl)c3c12` [Compound 291, (S)-9-Chloro-3-(2,3-dihydroxypropyl)-1,2-dimethyl-3,6-dihydro-pyrrolo[3,2-f]-quinolin-7-one] as the compound, how does the Ki read?
The Ki was greater than 10 nM.

Which Ki does the source give for `Cc1c(C)n(C[C@@H](O)CO)c2ccc3[nH]c(=O)cc(Cl)c3c12` [Compound 292, (R)-9-Chloro-3-(2,3-dihydroxypropyl)-1,2-dimethyl-3,6-dihydro-pyrrolo[3,2-f]-quinolin-7-one] here?
Its Ki is greater than 10 nM.

Which Ki does the source give for `Cc1c(C)n(CC(O)CO)c2ccc3[nH]c(=O)cc(C(F)(F)F)c3c12` (centres unmarked) [Compound 293, 3-(2,3-dihydroxypropyl)-1,2-dimethyl-9-trifluoromethyl-3,6-dihydro-pyrrolo[3,2-f]-quinolin-7-one] here?
Its Ki is greater than 10 nM.

For `Cc1c(C)n(CC(O)CCl)c2ccc3[nH]c(=O)cc(C(F)(F)F)c3c12` (centres unmarked) [Compound 294, 3-(3-chloro-2-hydroxypropyl)-1,2-dimethyl-9-trifluoromethyl-3,6-dihydro-pyrrolo[3,2-f]-quinolin-7-one], which Ki is on record?
Its Ki is less than 5 nM.

With `Cc1c(C)n(C[C@H](O)CO)c2ccc3[nH]c(=O)cc(C(F)(F)F)c3c12` [Compound 295, (S)-3-(2,3-dihydroxypropyl)-1,2-dimethyl-9-trifluoromethyl-3,6-dihydro-pyrrolo[3,2-f]-quinolin-7-one] as the compound, how does the Ki read?
Its Ki is greater than 10 nM.

For `Cc1c(C)n(C[C@@H](O)CO)c2ccc3[nH]c(=O)cc(C(F)(F)F)c3c12` [Compound 296, (R)-3-(2,3-dihydroxypropyl)-1,2-dimethyl-9-trifluoromethyl-3,6-dihydro-pyrrolo[3,2-f]-quinolin-7-one], which Ki is on record?
The Ki was greater than 10 nM.

For `CCc1c(C)c2c3c(Cl)cc(=O)[nH]c3ccc2n1CC(O)CO` (centres unmarked) [Compound 297, 9-Chloro-3-(2,3-dihydroxypropyl)-2-ethyl-1-methyl-3,6-dihydro-pyrrolo[3,2-f]-quinolin-7-one], which Ki is on record?
The Ki was greater than 10 nM.

How did the Ki turn out when `Cc1c(C)n(CCOCCOCCO)c2ccc3[nH]c(=O)cc(C(F)(F)F)c3c12` [Compound 298, 3-{2-[2-(2-Hydroxy-ethoxy)-ethoxy]-ethyl}-1,2-dimethyl-9-trifluoromethyl-3,6-dihydro-pyrrolo[3,2-f]quinolin-7-one] was run?
Its Ki is greater than 10 nM.
